Patent US8003660B2, “Modulators of muscarinic receptors” (Vertex Pharmaceuticals Incorporated, priority 2006, dated 2011)
Read-outs that look alike come from different tables or passages of the source.

How the values were obtained:
Assay type in all cases: cell-based
M4 muscarinic receptor = molecular target: T1, M4 muscarinic receptor (Homo sapiens, UniProt P08173); experiment: Functional mobilization of intracellular calcium (FLIPR) in CHO cells expressing M4; details: for EC50: CHO cells expressing M4, FLIPR calcium; for Emax: CHO; for M4 Activity: CHO cells expressing M4, FLIPR calcium assay
T1 construct: expressed in transfected cells; host or cells: CHO (M4-CHO)
T1 sequence (P08173 1-479): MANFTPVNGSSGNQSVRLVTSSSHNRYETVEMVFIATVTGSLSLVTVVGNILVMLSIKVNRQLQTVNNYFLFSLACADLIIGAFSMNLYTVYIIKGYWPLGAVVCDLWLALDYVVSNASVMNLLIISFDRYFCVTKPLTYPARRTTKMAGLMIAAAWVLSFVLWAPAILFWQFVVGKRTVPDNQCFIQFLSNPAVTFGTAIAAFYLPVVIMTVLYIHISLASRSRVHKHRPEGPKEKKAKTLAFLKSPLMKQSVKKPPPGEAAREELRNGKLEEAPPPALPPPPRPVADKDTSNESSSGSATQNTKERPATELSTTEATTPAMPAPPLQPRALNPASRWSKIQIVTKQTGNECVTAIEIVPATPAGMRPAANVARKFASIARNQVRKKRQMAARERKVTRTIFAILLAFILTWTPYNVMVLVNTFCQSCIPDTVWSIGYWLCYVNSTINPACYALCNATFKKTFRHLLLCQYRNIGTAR
How it was run: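 Recombinant CHO cells loaded with Fluo-3 AM or Calcium 3 dye in pH 7.4 buffer containing 1 mM probenecid, with 0.5% final DMSO. For agonism, compound is added directly. For inhibition, it is preincubated 15 min, or co-applied, before carbachol at EC80. FLIPR fluorescence (ex 488, em 540 nm) is recorded for 60 s.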

M2 muscarinic receptor = molecular target: T2, M2 muscarinic receptor (Homo sapiens, UniProt P08172); experiment: Functional mobilization of intracellular calcium (FLIPR) in CHO cells expressing M2; details: for EC50: CHO cells expressing M2, FLIPR calcium; for Emax: CHO; for M2 Activity: CHO cells expressing M2, FLIPR calcium assay
T2 construct: expressed in transfected cells; host or cells: CHO (M2-CHO)
T2 sequence (P08172 1-466): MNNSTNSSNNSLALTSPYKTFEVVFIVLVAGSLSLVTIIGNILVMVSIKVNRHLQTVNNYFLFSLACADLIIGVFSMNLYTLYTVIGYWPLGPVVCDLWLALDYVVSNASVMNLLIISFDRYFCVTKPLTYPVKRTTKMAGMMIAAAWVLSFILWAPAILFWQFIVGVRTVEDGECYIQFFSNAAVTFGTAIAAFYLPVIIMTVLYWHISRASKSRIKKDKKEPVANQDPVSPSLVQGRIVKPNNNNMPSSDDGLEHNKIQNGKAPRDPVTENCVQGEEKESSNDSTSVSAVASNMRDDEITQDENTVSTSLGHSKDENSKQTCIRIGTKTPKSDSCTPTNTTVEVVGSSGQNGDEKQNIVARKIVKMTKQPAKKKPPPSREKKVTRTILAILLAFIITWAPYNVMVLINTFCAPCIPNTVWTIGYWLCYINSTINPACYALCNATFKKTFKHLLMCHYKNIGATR
How it was run: (§1)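 Calcium flux is read on FLIPR over 60 sec at 488/540 nm in muscarinic-receptor CHO lines. Antagonist mode adds carbachol at EC80 after 15 min compound preincubation or with simultaneous co-application. Agonist mode adds compound alone. Cells carry Fluo-3 or Calcium 3 dye in probenecid-containing pH 7.4 buffer, 0.5% DMSO final.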

M3 muscarinic receptor = molecular target: T3, M3 muscarinic receptor (Homo sapiens, UniProt P20309); experiment: Functional mobilization of intracellular calcium (FLIPR) in CHO cells expressing M3; details: for EC50: CHO cells expressing M3, FLIPR calcium; for Emax: CHO; for M3 Activity: CHO cells expressing M3, FLIPR calcium assay
T3 construct: expressed in transfected cells; host or cells: CHO (M3-CHO)
How it was run: as §1

M1 muscarinic receptor = molecular target: T4, M1 muscarinic receptor (Homo sapiens, UniProt P11229); experiment: Functional mobilization of intracellular calcium (FLIPR) in CHO cells expressing M1; details: for EC50: CHO cells expressing M1, FLIPR calcium; for Emax: CHO; for M1 Activity: CHO cells expressing M1, FLIPR calcium assay
T4 construct: expressed in transfected cells; host or cells: CHO (M1-CHO)
T4 sequence (P11229 1-460): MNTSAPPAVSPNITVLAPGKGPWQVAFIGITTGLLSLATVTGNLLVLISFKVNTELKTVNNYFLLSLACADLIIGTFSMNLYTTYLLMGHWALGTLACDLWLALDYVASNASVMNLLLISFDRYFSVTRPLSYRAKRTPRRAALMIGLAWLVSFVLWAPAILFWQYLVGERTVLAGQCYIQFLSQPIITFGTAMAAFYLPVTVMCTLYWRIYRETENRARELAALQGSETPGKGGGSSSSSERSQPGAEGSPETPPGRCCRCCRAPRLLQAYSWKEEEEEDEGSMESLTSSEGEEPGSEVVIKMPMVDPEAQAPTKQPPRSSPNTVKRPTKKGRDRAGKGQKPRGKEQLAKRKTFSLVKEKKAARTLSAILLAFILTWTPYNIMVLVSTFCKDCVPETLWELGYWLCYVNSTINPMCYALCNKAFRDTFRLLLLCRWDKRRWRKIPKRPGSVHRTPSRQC
How it was run: as §1

[1] = 100% = maximum response obtained with the Carbachol control, read-out: M4 Efficacy
[2] = 100% = maximum response obtained with the Carbachol control, read-out: M2 Efficacy
[3] = 100% = maximum response obtained with the Carbachol control, read-out: M3 Efficacy
[4] = 100% = maximum response obtained with the Carbachol control, read-out: M1 Efficacy
[5] = 100% efficacy = maximum response obtained with the Carbachol control

T3 sequence (P20309 whole entry): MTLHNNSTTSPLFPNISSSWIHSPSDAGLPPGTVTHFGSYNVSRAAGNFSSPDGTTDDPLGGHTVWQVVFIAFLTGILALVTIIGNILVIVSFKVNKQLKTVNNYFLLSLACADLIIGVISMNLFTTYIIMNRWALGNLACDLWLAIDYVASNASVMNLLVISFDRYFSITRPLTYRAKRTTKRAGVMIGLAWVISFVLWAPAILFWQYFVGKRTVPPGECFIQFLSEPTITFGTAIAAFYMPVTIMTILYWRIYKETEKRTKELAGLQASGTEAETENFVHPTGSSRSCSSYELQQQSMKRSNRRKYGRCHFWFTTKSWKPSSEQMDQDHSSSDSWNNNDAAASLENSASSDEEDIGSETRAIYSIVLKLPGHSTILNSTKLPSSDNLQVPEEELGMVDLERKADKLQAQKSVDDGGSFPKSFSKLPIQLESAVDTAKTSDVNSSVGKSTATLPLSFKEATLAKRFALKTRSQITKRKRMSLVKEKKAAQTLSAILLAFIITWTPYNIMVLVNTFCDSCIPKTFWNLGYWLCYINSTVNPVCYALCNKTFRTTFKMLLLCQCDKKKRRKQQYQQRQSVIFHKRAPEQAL

| SMILES | EC50 (M4 muscarinic receptor) [µM] | Emax (M4 muscarinic receptor; [1]) [%] | EC50 (M2 muscarinic receptor) [µM] | Emax (M2 muscarinic receptor; [2]) [%] | EC50 (M3 muscarinic receptor) [µM] | Emax (M3 muscarinic receptor; [3]) [%] | EC50 (M1 muscarinic receptor) [µM] | Emax (M1 muscarinic receptor; [4]) [%] | M4 Activity (M4 muscarinic receptor) | Emax (M4 muscarinic receptor; [5]) [%] | M2 Activity (M2 muscarinic receptor) | Emax (M2 muscarinic receptor; [5]) [%] | M3 Activity (M3 muscarinic receptor) | Emax (M3 muscarinic receptor; [5]) [%] | M1 Activity (M1 muscarinic receptor) | Emax (M1 muscarinic receptor; [5]) [%] |
| --- | --- | --- | --- | --- | --- | --- | --- | --- | --- | --- | --- | --- | --- | --- | --- | --- |
| Cn1cnc(C(=O)N[C@@H]2CCC3(CCN(CCC(C)(C)C)CC3)c3cc(F)ccc32)c1 [compound 180] | < 2 | 25 to 100 | < 2 | 25 to 100 | > 5 | < 25 | < 2 | 25 to 100 | – | – | – | – | – | – | – | – |
| CCN(C(=O)COC)[C@H]1CCC2(CCN(CCC(C)(C)C)CC2)c2ccccc21 [compound 181] | < 2 | 25 to 100 | > 5 | < 25 | > 5 | < 25 | 2 to 5 | 25 to 100 | – | – | – | – | – | – | – | – |
| CC(C)C[C@@H](C(=O)N[C@@H]1CCC2(CCN(CCC(C)(C)C)CC2)c2ccccc21)N1CCCC1=O [compound 182] | < 2 | 25 to 100 | > 5 | < 25 | > 5 | < 25 | 2 to 5 | 25 to 100 | – | – | – | – | – | – | – | – |
| CCN(C(=O)CC(F)(F)F)[C@H]1CCC2(CCN(CCC(C)(C)C)CC2)c2ccccc21 [compound 183] | < 2 | 25 to 100 | > 5 | < 25 | > 5 | < 25 | 2 to 5 | 25 to 100 | – | – | – | – | – | – | – | – |
| CC(=O)N(C)[C@H]1CCC2(CCN(CCC(C)C)CC2)c2ccccc21 [compound 184] | < 2 | 25 to 100 | > 5 | < 25 | > 5 | < 25 | < 2 | 25 to 100 | – | – | – | – | – | – | – | – |
| CC(=O)N[C@H]1CCC2(CCN(CCCC(F)(F)F)CC2)c2ccccc21 [compound 185] | – | – | – | – | – | – | – | – | ++ (activity was measured to be from 2.0 μM to 5.0 μM) | 25 to 100 | + (activity was measured to be greater than 5.0 μM) | < 25 | + (activity was measured to be greater than 5.0 μM) | 25 to 100 | ++ (activity was measured to be from 2.0 μM to 5.0 μM) | 25 to 100 |
| CC(=O)N1CCCCC1C(=O)N[C@@H]1CCC2(CCN(CCC(C)(C)C)CC2)c2ccccc21 (some centres unmarked) [compound 186] | – | – | – | – | – | – | – | – | +++ (activity was measured to be less than 2.0 μM) | 25 to 100 | + (activity was measured to be greater than 5.0 μM) | < 25 | + (activity was measured to be greater than 5.0 μM) | < 25 | ++ (activity was measured to be from 2.0 μM to 5.0 μM) | 25 to 100 |
| CCN(C(=O)CCNC(C)=O)[C@H]1CCC2(CCN(CCC(C)(C)C)CC2)c2ccccc21 [compound 187] | – | – | – | – | – | – | – | – | +++ (activity was measured to be less than 2.0 μM) | 25 to 100 | + (activity was measured to be greater than 5.0 μM) | < 25 | + (activity was measured to be greater than 5.0 μM) | < 25 | +++ (activity was measured to be less than 2.0 μM) | 25 to 100 |
| CC(C)(C)CCN1CCC2(CC[C@@H](NC(=O)C3CCOCC3)c3ccccc32)CC1 [compound 188] | – | – | – | – | – | – | – | – | +++ (activity was measured to be less than 2.0 μM) | 25 to 100 | + (activity was measured to be greater than 5.0 μM) | < 25 | + (activity was measured to be greater than 5.0 μM) | < 25 | + (activity was measured to be greater than 5.0 μM) | < 25 |
| CC(=O)N[C@@H]1CCC2(CCN(CCC(C)(C)C)CC2)c2cc(F)ccc21 [compound 189] | – | – | – | – | – | – | – | – | +++ (activity was measured to be less than 2.0 μM) | 25 to 100 | +++ (activity was measured to be less than 2.0 μM) | < 25 | + (activity was measured to be greater than 5.0 μM) | < 25 | +++ (activity was measured to be less than 2.0 μM) | 25 to 100 |
| CC(=O)N1CCC(C(=O)N[C@H]2CCC3(CCN(CCC(C)(C)C)CC3)c3ccccc32)CC1 [compound 191] | – | – | – | – | – | – | – | – | +++ (activity was measured to be less than 2.0 μM) | 25 to 100 | + (activity was measured to be greater than 5.0 μM) | < 25 | + (activity was measured to be greater than 5.0 μM) | < 25 | +++ (activity was measured to be less than 2.0 μM) | 25 to 100 |
| CC(C)(C)CCN1CCC2(CC[C@@H](NC(=O)[C@H]3CCC(=O)N3)c3ccc(F)cc32)CC1 [compound 192] | – | – | – | – | – | – | – | – | +++ (activity was measured to be less than 2.0 μM) | 25 to 100 | + (activity was measured to be greater than 5.0 μM) | < 25 | + (activity was measured to be greater than 5.0 μM) | < 25 | + (activity was measured to be greater than 5.0 μM) | < 25 |
| Cn1nccc1C(=O)N[C@H]1CCC2(CCN(CCC(C)(C)C)CC2)c2ccccc21 [compound 193] | – | – | – | – | – | – | – | – | +++ (activity was measured to be less than 2.0 μM) | 25 to 100 | + (activity was measured to be greater than 5.0 μM) | < 25 | + (activity was measured to be greater than 5.0 μM) | < 25 | +++ (activity was measured to be less than 2.0 μM) | 25 to 100 |
| CC(=O)N1CCC[C@H]1C(=O)N[C@H]1CCC2(CCN(CCC(C)(C)C)CC2)c2ccccc21 [compound 194] | – | – | – | – | – | – | – | – | +++ (activity was measured to be less than 2.0 μM) | 25 to 100 | + (activity was measured to be greater than 5.0 μM) | < 25 | + (activity was measured to be greater than 5.0 μM) | < 25 | +++ (activity was measured to be less than 2.0 μM) | 25 to 100 |
| CC(C)(C)CCN1CCC2(CC[C@H](NC(=O)Cc3cccnc3)c3ccccc32)CC1 [compound 195] | – | – | – | – | – | – | – | – | +++ (activity was measured to be less than 2.0 μM) | 25 to 100 | +++ (activity was measured to be less than 2.0 μM) | 25 to 100 | + (activity was measured to be greater than 5.0 μM) | < 25 | +++ (activity was measured to be less than 2.0 μM) | 25 to 100 |
| CCOCC(=O)N[C@H]1CCC2(CCN(CCC(C)(C)C)CC2)c2cc(F)ccc21 [compound 196] | – | – | – | – | – | – | – | – | +++ (activity was measured to be less than 2.0 μM) | 25 to 100 | +++ (activity was measured to be less than 2.0 μM) | 25 to 100 | + (activity was measured to be greater than 5.0 μM) | < 25 | +++ (activity was measured to be less than 2.0 μM) | 25 to 100 |
